Experimental data: patent US10227331B2 (priority 2015, dated 2019)
In brackets after ≈: the same amount, converted by molar mass.

Experiments:
Assay type in all cases: cell-based, Pseudomonas aeruginosa
[1] = test system: MB 9861 (MB 5919 Trans pFIp-Vim1 plasmid, efflux+)
[2] = test system: MB 9799 (MB 5890 Trans IMP1 plasmid, efflux-); conditions: CL 5673 (IMP-1) plasmid
[3] = test system: MB 5890 Trans pFIp-Vim2 plasd (efflux-)
MB 5890 (OprD+, efflux-) = test system: MB 5890 (OprD+, efflux-)
MB 5919 (OprD+, efflux+) = test system: MB 5919 (OprD+, efflux+)
[4] = test system: MB 5919 Trans pFIp-Vim2 plasd (efflux+)
[5] = test system: MB 9862 (MB 5890 Trans pFIp-Vim1, efflux-)

SMILES | MIC [1] | MIC [2] | MIC [3] | MIC (MB 5890 (OprD+, efflux-)) | MIC (MB 5919 (OprD+, efflux+)) | MIC [4] | MIC [5]
CC(C)(O/N=C(\C(=O)N[C@@H]1C(=O)N2C(C(=O)[O-])=C(C[n+]3ccccc3)CS[C@H]12)c1csc(N)n1)C(=O)O [CAZ, ceftazidime] | >256 mg/L | 256 mg/L (≈ 468 µM) | 64 mg/L (≈ 117 µM) | 0.5 mg/L (≈ 0.915 µM) | 1 mg/L (≈ 1.83 µM) | 128 mg/L (≈ 234 µM) | >256 mg/L
C[C@@H](O)[C@H]1C(=O)N2C(C(=O)O)=C(SCCN=CN)C[C@H]12 [Imipenem, imipenem] | >64 mg/L | 32 mg/L (≈ 107 µM) | 32 mg/L (≈ 107 µM) | 2 mg/L (≈ 6.68 µM) | 4 mg/L (≈ 13.4 µM) | >64 mg/L | 64 mg/L (≈ 214 µM)
C[C@@H](O)[C@H]1C(=O)N2C(C(=O)O)=C(S[C@@H]3CN[C@H](C(=O)N(C)C)C3)[C@H](C)[C@H]12 [Meropenem, meropenem] | >64 mg/L | 64 mg/L (≈ 167 µM) | 32 mg/L (≈ 83.4 µM) | 0.5 mg/L (≈ 1.3 µM) | 2 mg/L (≈ 5.22 µM) | >64 mg/L | 64 mg/L (≈ 167 µM)
CCN1CCN(C(=O)N[C@@H](C(=O)N[C@@H]2C(=O)N3[C@@H]2SC(C)(C)[C@@H]3C(=O)O)c2ccccc2)C(=O)C1=O [Pipercillin, piperacillin] | >256 mg/L | 4 mg/L (≈ 7.73 µM) | 128 mg/L (≈ 247 µM) | 1 mg/L (≈ 1.93 µM) | 2 mg/L (≈ 3.86 µM) | >256 mg/L | 128 mg/L (≈ 247 µM)
